Assay results reported in PubChem BioAssay (NCI).
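How tested: cells in 96-well plates exposed to compound for 48 hours at five concentrations. At the GI50, growth is halved. TGI: concentration producing complete growth inhibition.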

Assays:
Experiment in all cases: NCI anticancer screen, dose series, 48 h
[1] = tested on: A498 renal
[2] = tested on: SF-268 CNS
[3] = tested on: CCRF-CEM leukemia
[4] = tested on: RXF 393 renal
[5] = tested on: NCI-H23 lung
[6] = tested on: NCI-H522 lung
[7] = tested on: MDA-MB-435
[8] = tested on: LOX IMVI melanoma
[9] = tested on: MCF7 breast
[10] = tested on: NCI-H460 lung
[11] = tested on: SNB-75 CNS
[12] = tested on: SK-MEL-5 melanoma
[13] = tested on: MALME-3M melanoma
[14] = tested on: EKVX NSCLC
[15] = tested on: MOLT-4 leukemia
[16] = tested on: ACHN renal
[17] = tested on: TK-10 renal
[18] = tested on: SW-620 colon
[19] = tested on: SK-MEL-28 melanoma
[20] = tested on: M14 melanoma
[21] = tested on: CAKI-1 renal
[22] = tested on: SNB-19 CNS
[23] = tested on: IGROV1 ovarian
[24] = tested on: OVCAR-5 ovarian
[25] = tested on: SK-OV-3 ovarian
[26] = tested on: DU-145 prostate
[27] = tested on: SN12C renal
[28] = tested on: SF-539 CNS
[29] = tested on: SR leukemia
[30] = tested on: COLO 205 colon
[31] = tested on: HCC-2998 colon
[32] = tested on: OVCAR-8 ovarian
[33] = tested on: HCT-15 colon
[34] = tested on: PC-3 prostate
[35] = tested on: NCI/ADR-RES ovarian
[36] = tested on: UACC-62 melanoma
[37] = tested on: KM12 colon
[38] = tested on: OVCAR-3 ovarian
[39] = tested on: HCT-116 colon
[40] = tested on: UO-31 renal
[41] = tested on: SF-295 CNS
[42] = tested on: BT-549 breast
[43] = tested on: HL-60(TB) leukemia
[44] = tested on: OVCAR-4 ovarian
[45] = tested on: UACC-257 melanoma
[46] = tested on: HT29 colon
[47] = tested on: T-47D breast
[48] = tested on: K-562 leukemia
[49] = tested on: NCI-H226 lung
[50] = tested on: A549 NSCLC
[51] = tested on: 786-0 renal
[52] = tested on: RPMI-8226 leukemia
[53] = tested on: MDA-MB-231 breast
[54] = tested on: HOP-62 NSCLC
[55] = tested on: HOP-92 NSCLC
[56] = tested on: SK-MEL-2 melanoma
[57] = tested on: U251 CNS

## Fc1ccc(C2CC(c3cccc(Nc4ccncc4)c3)=NN2c2cc(Cl)cc(Cl)c2)cc1 (stereo not given)
[1]
  GI50: 1.17 µM
  TGI: 2.6 µM
[2]
  GI50: 1.72 µM
  TGI: 3.4 µM
[3]
  GI50: 2.9 µM
  TGI: > 100 µM
[4]
  GI50: 1.59 µM
  TGI: 2.99 µM
[5]
  GI50: 1.7 µM
  TGI: 3.19 µM
[6]
  GI50: 1.88 µM
  TGI: 3.9 µM
[7]
  GI50: 1.68 µM
  TGI: 3.13 µM
[8]
  GI50: 1.6 µM
  TGI: 2.94 µM
[9]
  GI50: 1.95 µM
  TGI: 4.37 µM
[10]
  GI50: 1.87 µM
  TGI: 3.55 µM
[11]
  GI50: 1.31 µM
  TGI: 2.91 µM
[12]
  GI50: 1.81 µM
  TGI: 3.34 µM
[13]
  GI50: 1.72 µM
  TGI: 3.41 µM
[14]
  GI50: 1.71 µM
  TGI: 3.38 µM
[15]
  GI50: 2.23 µM
  TGI: 5.23 µM
[16]
  GI50: 1.66 µM
  TGI: 3.02 µM
[17]
  GI50: 1.94 µM
  TGI: 3.84 µM
[18]
  GI50: 1.75 µM
  TGI: 3.29 µM
[19]
  GI50: 1.74 µM
  TGI: 3.31 µM
[20]
  GI50: 1.74 µM
  TGI: 3.28 µM
[21]
  GI50: 1.54 µM
  TGI: 2.92 µM
[22]
  GI50: 1.74 µM
  TGI: 3.32 µM
[23]
  GI50: 1.74 µM
  TGI: 3.3 µM
[24]
  GI50: 1.73 µM
  TGI: 3.16 µM
[25]
  GI50: 1.79 µM
  TGI: 3.54 µM
[26]
  GI50: 1.85 µM
  TGI: 3.32 µM
[27]
  GI50: 1.69 µM
  TGI: 3.16 µM
[28]
  GI50: 1.64 µM
  TGI: 3.11 µM
[29]
  GI50: 2.06 µM
  TGI: 4.92 µM
[30]
  GI50: 2.21 µM
  TGI: 4.81 µM
[31]
  GI50: 1.6 µM
  TGI: 2.96 µM
[32]
  GI50: 2.2 µM
  TGI: 4.77 µM
[33]
  GI50: 1.77 µM
  TGI: 3.47 µM
[34]
  GI50: 1.55 µM
  TGI: 3.14 µM
[35]
  GI50: 1.71 µM
  TGI: 3.34 µM
[36]
  GI50: 1.74 µM
  TGI: 3.27 µM
[37]
  GI50: 1.76 µM
  TGI: 3.26 µM
[38]
  GI50: 1.8 µM
  TGI: 3.32 µM
[39]
  GI50: 1.66 µM
  TGI: 3.15 µM
[40]
  GI50: 1.36 µM
  TGI: 2.66 µM
[41]
  GI50: 1.77 µM
  TGI: 3.21 µM
[42]
  GI50: 1.88 µM
  TGI: 3.63 µM
[43]
  GI50: 2.25 µM
  TGI: 5.14 µM
[44]
  GI50: 1.77 µM
  TGI: 3.23 µM

## COc1ccc(C2=CC(c3cc(OC)c(OC)c(OC)c3)NC(=O)N2)cc1OC (stereo not given)
[1]
  GI50: 1.83 µM
  TGI: 8.32 µM
[45]
  GI50: 10.8 µM
  TGI: 23.2 µM
[2]
  GI50: 3.46 µM
  TGI: 14.5 µM
[46]
  GI50: 4.05 µM
  TGI: 15.1 µM
[3]
  GI50: 2.65 µM
  TGI: 11 µM
[4]
  GI50: 3.04 µM
  TGI: 12.7 µM
[5]
  GI50: 3.48 µM
  TGI: 17.5 µM
[6]
  GI50: 2.78 µM
  TGI: 11.2 µM
[47]
  GI50: 2.63 µM
  TGI: 28.9 µM
[48]
  GI50: 1.96 µM
  TGI: 24.5 µM
[7]
  GI50: 3.1 µM
  TGI: 16.9 µM
[8]
  GI50: 3.05 µM
  TGI: 11.7 µM
[9]
  GI50: 4.26 µM
  TGI: 14.8 µM
[10]
  GI50: 1.92 µM
  TGI: 5 µM
[49]
  GI50: 8.4 µM
  TGI: > 100 µM
[11]
  GI50: 2.42 µM
  TGI: 7.95 µM
[12]
  GI50: 4.41 µM
  TGI: 16.5 µM
[50]
  GI50: 4.74 µM
  TGI: > 100 µM
[51]
  GI50: 4.65 µM
  TGI: 15.6 µM
[13]
  GI50: 5.06 µM
  TGI: 21.1 µM
[14]
  GI50: 2.85 µM
  TGI: 23.2 µM
[15]
  GI50: 2.41 µM
  TGI: 12.5 µM
[52]
  GI50: 3.03 µM
  TGI: 19.3 µM
[16]
  GI50: 3.5 µM
  TGI: 43.6 µM
[17]
  GI50: 4.48 µM
  TGI: 41.2 µM
[53]
  GI50: 2.84 µM
  TGI: 8.04 µM
[18]
  GI50: 2.96 µM
  TGI: 10.2 µM
[19]
  GI50: 6.97 µM
  TGI: 20.5 µM
[54]
  GI50: 3.99 µM
  TGI: 19.8 µM
[20]
  GI50: 3.59 µM
  TGI: 11.5 µM
[21]
  GI50: 2.26 µM
  TGI: 9.32 µM
[22]
  GI50: 4.73 µM
  TGI: 17 µM
[55]
  GI50: 12.5 µM
  TGI: > 100 µM
[23]
  GI50: 3.8 µM
  TGI: 20.4 µM
[24]
  GI50: 2.28 µM
  TGI: 6.42 µM
[56]
  GI50: 4.96 µM
  TGI: 24.3 µM
[25]
  GI50: 3.67 µM
  TGI: > 100 µM
[26]
  GI50: 1.9 µM
  TGI: 4.45 µM
[27]
  GI50: 2.42 µM
  TGI: 8.33 µM
[28]
  GI50: 2.28 µM
  TGI: 5.94 µM
[29]
  GI50: 2.11 µM
  TGI: 10.4 µM
[30]
  GI50: 2.65 µM
  TGI: 6.69 µM
[31]
  GI50: 3.77 µM
  TGI: 12.6 µM
[32]
  GI50: 4.25 µM
  TGI: > 100 µM
[33]
  GI50: 2.9 µM
  TGI: 17.7 µM
[34]
  GI50: 10.2 µM
  TGI: > 100 µM
[35]
  GI50: 3.02 µM
  TGI: > 100 µM
[36]
  GI50: 4.31 µM
  TGI: 16.8 µM
[37]
  GI50: 2.25 µM
  TGI: 6.12 µM
[38]
  GI50: 2.13 µM
  TGI: 5.05 µM
[39]
  GI50: 3.17 µM
  TGI: 11.1 µM
[40]
  GI50: 2.54 µM
  TGI: 12.8 µM
[41]
  GI50: 2.34 µM
  TGI: 7.87 µM
[43]
  GI50: 1.57 µM
  TGI: 6.52 µM
[44]
  GI50: 3.61 µM
  TGI: > 100 µM
[57]
  GI50: 3.82 µM
  TGI: 14.1 µM
